From ChEMBL document CHEMBL5038595, “Synthesis and Pharmacological Evaluation of Tetrahydro-γ-carboline Derivatives as Potent Anti-inflammatory Agents Targeting Cyclic GMP-AMP Synthase” (J Med Chem, 2021)

Legend:
Cyclic GMP-AMP synthase [1] = molecular target: T1, Cyclic GMP-AMP synthase (Homo sapiens, UniProt Q8N884); test: Inhibition of human cGAS assessed as reduction in 2,3-cGAMP synthesis by measuring ATP consumption incubated for 20 mins by Kinase Glo luminescence assay
Cyclic GMP-AMP synthase [2] = molecular target: T2, Cyclic GMP-AMP synthase (Mus musculus, UniProt Q8C6L5); test: Inhibition of mouse cGAS
[3] = Cytotoxicity against human THP1-Dual cells assessed as reduction in cell viability incubated for 24 hrs by CCK-8 assay; format: toxicity, cell-based
Cyclic GMP-AMP synthase [4] = molecular target: T1, Cyclic GMP-AMP synthase; test: Inhibition of human cGAS expressed in THP1-Dual cells transfected with HT-DNA assessed as suppression of lipofectamine 2000:ds-DNA complex induced activation of cGAS incubated for 1 hr by Quanti-luc reagent based assay; format: cell-based
[5] = Cytotoxicity against mouse RAW-Lucia ISG cells assessed as reduction in cell viability incubated for 24 hrs by CCK-8 assay; format: toxicity, cell-based
Cyclic GMP-AMP synthase [6] = molecular target: T2, Cyclic GMP-AMP synthase; test: Inhibition of mouse cGAS expressed in RAW-Lucia ISG transfected with HT-DNA assessed as suppression of lipofectamine 2000:ds-DNA complex induced activation of cGAS incubated for 1 hr by Quanti-luc reagent based assay; format: cell-based
Mus musculus [7] = test: Anti-inflammatory activity against LPS-induced acute lung injury BALB/c mouse model assessed as inhibition of LPS-induced TNFalpha release by measuring fold decrease in TNFalpha level at 30 mg/kg, ip treated 1 hr before LPS stimulation and measured after 1.5 hrs by ELISA; format: functional; details: time 2.5 hrs
Mus musculus [8] = test: Anti-inflammatory activity against LPS-induced acute lung injury BALB/c mouse model assessed as inhibition of LPS-induced IL-6 release by measuring fold decrease in IL-6 level at 30 mg/kg, ip treated 1 hr before LPS stimulation and measured after 1.5 hrs by ELISA; format: functional; details: time 2.5 hrs
Mus musculus [9] = test: Anti-inflammatory activity against LPS-induced acute lung injury BALB/c mouse model assessed as inhibition of LPS-induced IL-12 release by measuring fold decrease in IL-12 level at 30 mg/kg, ip treated 1 hr before LPS stimulation and measured after 1.5 hrs by ELISA; format: functional; details: time 2.5 hrs
Cyclic GMP-AMP synthase [10] = molecular target: T1, Cyclic GMP-AMP synthase; test: Inhibition of human cGAS incubated for 1 hr followed by Cy5-labeled cGAMP addition and measured after 1 hr by fluorescence polarization assay

T1 sequence (Q8N884 whole entry): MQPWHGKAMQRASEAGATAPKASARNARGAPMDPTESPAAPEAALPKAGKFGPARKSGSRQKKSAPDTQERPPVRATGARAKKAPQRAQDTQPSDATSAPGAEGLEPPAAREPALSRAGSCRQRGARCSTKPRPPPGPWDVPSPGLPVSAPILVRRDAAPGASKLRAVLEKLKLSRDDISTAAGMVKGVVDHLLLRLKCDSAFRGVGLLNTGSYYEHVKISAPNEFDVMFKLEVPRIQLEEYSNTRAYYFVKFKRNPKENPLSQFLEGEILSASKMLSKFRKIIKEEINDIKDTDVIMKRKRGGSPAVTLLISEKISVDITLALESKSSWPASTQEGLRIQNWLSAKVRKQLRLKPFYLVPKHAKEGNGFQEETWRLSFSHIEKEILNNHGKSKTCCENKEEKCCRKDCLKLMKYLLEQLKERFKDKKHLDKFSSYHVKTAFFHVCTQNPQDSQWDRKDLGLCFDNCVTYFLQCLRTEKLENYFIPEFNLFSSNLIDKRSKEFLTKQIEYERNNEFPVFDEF
T2 sequence (Q8C6L5 whole entry): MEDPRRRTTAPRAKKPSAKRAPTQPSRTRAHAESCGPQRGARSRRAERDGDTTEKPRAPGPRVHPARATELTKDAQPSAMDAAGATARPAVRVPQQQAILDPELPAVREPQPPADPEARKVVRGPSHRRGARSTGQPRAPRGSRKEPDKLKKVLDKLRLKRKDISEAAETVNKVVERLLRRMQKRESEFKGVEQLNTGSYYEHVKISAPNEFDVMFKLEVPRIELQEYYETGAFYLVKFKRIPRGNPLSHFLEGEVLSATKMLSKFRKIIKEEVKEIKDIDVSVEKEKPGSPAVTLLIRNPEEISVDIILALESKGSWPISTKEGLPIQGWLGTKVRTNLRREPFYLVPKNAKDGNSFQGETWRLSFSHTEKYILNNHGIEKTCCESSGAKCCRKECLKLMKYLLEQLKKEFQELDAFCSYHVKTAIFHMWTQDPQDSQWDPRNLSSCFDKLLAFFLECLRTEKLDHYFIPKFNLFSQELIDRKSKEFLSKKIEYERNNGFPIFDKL

COC(=O)c1nc(N)nc(Nc2cc(F)c(I)c(F)c2)n1
IC50 (Cyclic GMP-AMP synthase [1]): 0.24 µM

Nc1ccc(-c2cc(Cl)c(Cl)c3[nH]c4c(c23)CN(C(=O)CO)CC4)cn1
IC50 (Cyclic GMP-AMP synthase [2]): > 25 µM

Cn1ccc(-c2cc(Cl)c(Cl)c3[nH]c4c(c23)CN(C(=O)CNC(=O)CN)CC4)n1
CC50 at 24 h [3]: 25.3 µM | IC50 (Cyclic GMP-AMP synthase [4]): 1.38 µM | CC50 at 24 h [5]: 33 µM | IC50 (Cyclic GMP-AMP synthase [6]): 11.4 µM | fold change (FC) (Mus musculus [7]): 2.6 | fold change (FC) (Mus musculus [8]): 2.5 | fold change (FC) (Mus musculus [9]): 7.6

N#Cc1c(NC(=O)c2n[nH]c(-n3cnnc3)n2)sc2c1CCCC2
IC50 (Cyclic GMP-AMP synthase [10]): 4.9 µM
